Where “and” joins values, the source holds several entries; their conditions need not be identical. Equal values may be shown once. Inconclusive results and toxic doses are left out.
Test system: BDF1 mice, P388 leukemia ip, median survival T/C
Assay: NCI In Vivo Anticancer Drug Screen. Data for tumor model P388 Leukemia (intraperitoneal) in B6D2F1 (BDF1) mice
Conditions: endpoint: median survival time, higher = longer survival
Outline: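 In tumour-bearing mice, survival after compound treatment is set against the vehicle group and given as a quotient.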

[1] = dose: 100.0 mg/kg/injection, schedule: Q04DX003 (ip), vehicle: alcohol
[2] = dose: 200.0 mg/kg/injection, schedule: Q04DX003 (ip), vehicle: alcohol
[3] = dose: 400.0 mg/kg/injection, schedule: Q04DX003 (ip), vehicle: alcohol
[4] = dose: 50.0 mg/kg/injection, schedule: Q01DX009 (ip), vehicle: saline with Tween-80
[5] = dose: 100.0 mg/kg/injection, schedule: Q01DX009 (ip), vehicle: saline with Tween-80
[6] = dose: 200.0 mg/kg/injection, schedule: Q01DX009 (ip), vehicle: saline with Tween-80
[7] = dose: 100.0 mg/kg/injection, schedule: Q04DX003 (ip), vehicle: Klucel (hydroxypropylcellulose) (HPC)
[8] = dose: 200.0 mg/kg/injection, schedule: Q04DX003 (ip), vehicle: Klucel (hydroxypropylcellulose) (HPC)
[9] = dose: 400.0 mg/kg/injection, schedule: Q04DX003 (ip), vehicle: Klucel (hydroxypropylcellulose) (HPC)
[10] = dose: 100.0 mg/kg/injection, schedule: Q04DX003 (ip), vehicle: saline
[11] = dose: 200.0 mg/kg/injection, schedule: Q04DX003 (ip), vehicle: saline
[12] = dose: 100.0 mg/kg/injection, schedule: Q01DX009 (ip), vehicle: Klucel (hydroxypropylcellulose) (HPC)
[13] = dose: 200.0 mg/kg/injection, schedule: Q01DX009 (ip), vehicle: Klucel (hydroxypropylcellulose) (HPC)

## CCCCCCCCCCCCCCCC[N+](C)(C)c1ccccc1
dose: 1.56 mg/kg/injection, schedule: Q04DX003 (ip), vehicle: saline with Tween-80
  T/C: 110 % of control
dose: 3.13 mg/kg/injection, schedule: Q04DX003 (ip), vehicle: saline with Tween-80
  T/C: 115 % of control
dose: 25.0 mg/kg/injection, schedule: Q04DX003 (ip), vehicle: saline with Tween-80
  T/C: 108 % of control

## CCCSc1nc(N)nc2nc[nH]c12
[1]
  T/C: 100 % of control
[2]
  T/C: 104 % of control
[3]
  T/C: 90 % of control

## CN1CCC2(CC1)c1ccccc1-c1ccccc12
[4]
  T/C: 109 % of control
[5]
  T/C: 100 % of control

## COC(=O)C(Br)c1cccc(OC)c1 (centres undefined)
dose: 58.5 mg/kg/injection, schedule: Q01DX009 (ip), vehicle: saline with Tween-80
  T/C: 100 % of control
dose: 88.0 mg/kg/injection, schedule: Q01DX009 (ip), vehicle: saline with Tween-80
  T/C: 100 % of control
dose: 132.0 mg/kg/injection, schedule: Q01DX009 (ip), vehicle: saline with Tween-80
  T/C: 90 % of control
[6]
  T/C: 100 % of control and 120 % of control

## CCOC(=O)C(=O)Cc1cnc2ccccc2n1
[7]
  T/C: 86 % of control
[8]
  T/C: 86 % of control
[9]
  T/C: 90 % of control

## O=C(NC(=O)c1c(F)cccc1F)Nc1ccc2[nH]ccc2c1
dose: 25.0 mg/kg/injection, schedule: Q01DX009 (ip), vehicle: saline with Tween-80
  T/C: 100 % of control
[4]
  T/C: 100 % of control
[5]
  T/C: 93 % of control

## C1OCN2CSCC12 (centres undefined)
dose: 100.0 mg/kg/injection, schedule: Q04DX002 (ip), vehicle: suspension in saline
  T/C: 110 % of control
dose: 600.0 mg/kg/injection, schedule: Q04DX002 (ip), vehicle: suspension in saline
  T/C: 117 % of control

## CCNC1=C(N2CC2)C(=O)C(NCC)=C(N2CC2)C1=O
dose: 0.37 mg/kg/injection, schedule: Q01DX009 (ip), vehicle: saline
  T/C: 156 % of control and 175 % of control
dose: 0.75 mg/kg/injection, schedule: Q01DX009 (ip), vehicle: saline
  T/C: 193 % of control and 203 % of control
dose: 1.5 mg/kg/injection, schedule: Q01DX009 (ip), vehicle: saline
  T/C: 228 % of control and 178 % of control

## CC(C)CCCC(C)C1CCC2C3CCC45CC4C(=O)CCC5(C)C3CCC12C (centres undefined)
[1]
  T/C: 115 % of control
[2]
  T/C: 100 % of control
[3]
  T/C: 100 % of control

## CCNC(C)(C)C(=O)c1ccco1
[10]
  T/C: 100 % of control
[11]
  T/C: 100 % of control

## CCSC1(SCC)C(=O)OC2=C(CCCCC2)C1N(C)c1ccccc1 (centres undefined)
[4]
  T/C: 87 % of control
[6]
  T/C: 96 % of control

## O=C(Oc1ccc([N+](=O)[O-])cc1)c1ccc(C[n+]2ccccc2)cc1
[4]
  T/C: 91 % of control
dose: 50.0 mg/kg/injection, schedule: Q01DX009 (ip), vehicle: saline
  T/C: 89 % of control
dose: 50.0 mg/kg/injection, schedule: Q04DX003 (ip), vehicle: saline
  T/C: 91 % of control
[5]
  T/C: 109 % of control
dose: 100.0 mg/kg/injection, schedule: Q01DX009 (ip), vehicle: saline
  T/C: 89 % of control
[10]
  T/C: 104 % of control and 108 % of control
[6]
  T/C: 116 % of control
dose: 200.0 mg/kg/injection, schedule: Q01DX009 (ip), vehicle: saline
  T/C: 96 % of control
[11]
  T/C: 90 % of control and 100 % of control

## CC(=N/NC(=S)NCCN1CCCCC1)/C(C)=N\NC(=S)NCCN1CCCCC1
dose: 0.78 mg/kg/injection, schedule: Q01DX009 (ip), vehicle: saline
  T/C: 90 % of control
dose: 1.56 mg/kg/injection, schedule: Q01DX009 (ip), vehicle: saline
  T/C: 98 % of control
dose: 3.13 mg/kg/injection, schedule: Q01DX009 (ip), vehicle: saline
  T/C: 98 % of control and 121 % of control
dose: 6.25 mg/kg/injection, schedule: Q01DX009 (ip), vehicle: saline
  T/C: 105 % of control and 109 % of control
dose: 12.5 mg/kg/injection, schedule: Q01DX009 (ip), vehicle: saline
  T/C: 103 % of control

## CCOC(=O)C(CCCCC(NC(C)=O)(C(=O)OCC)C(=O)OCC)(NC(C)=O)C(=O)OCC
[5]
  T/C: 95 % of control
[6]
  T/C: 100 % of control
dose: 400.0 mg/kg/injection, schedule: Q01DX009 (ip), vehicle: saline with Tween-80
  T/C: 104 % of control

## O=CNc1c(Cl)c(Cl)c2c(c1Cl)Cc1cc(Cl)ccc1-2
dose: 0.18 mg/kg/injection, schedule: Q01DX009 (ip), vehicle: DMSO
  T/C: 91 % of control
dose: 0.37 mg/kg/injection, schedule: Q01DX009 (ip), vehicle: DMSO
  T/C: 95 % of control
dose: 0.75 mg/kg/injection, schedule: Q01DX009 (ip), vehicle: DMSO
  T/C: 100 % of control
dose: 3.0 mg/kg/injection, schedule: Q01DX009 (ip), vehicle: DMSO
  T/C: 89 % of control
dose: 12.5 mg/kg/injection, schedule: Q01DX009 (ip), vehicle: DMSO
  T/C: 96 % of control
dose: 50.0 mg/kg/injection, schedule: Q01DX001 (ip), vehicle: Klucel (hydroxypropylcellulose) (HPC)
  T/C: 90 % of control
dose: 100.0 mg/kg/injection, schedule: Q01DX001 (ip), vehicle: Klucel (hydroxypropylcellulose) (HPC)
  T/C: 90 % of control
[12]
  T/C: 116 % of control
[7]
  T/C: 90 % of control and 100 % of control
dose: 200.0 mg/kg/injection, schedule: Q01DX001 (ip), vehicle: Klucel (hydroxypropylcellulose) (HPC)
  T/C: 86 % of control
[13]
  T/C: 116 % of control
[8]
  T/C: 90 % of control and 91 % of control
dose: 400.0 mg/kg/injection, schedule: Q01DX009 (ip), vehicle: Klucel (hydroxypropylcellulose) (HPC)
  T/C: 105 % of control
[9]
  T/C: 86 % of control and 87 % of control

## O=[N+]([O-])c1cc([N+](=O)[O-])c(Nc2cccc3ccccc23)c([N+](=O)[O-])c1
dose: 50.0 mg/kg/injection, schedule: Q01DX009 (ip), vehicle: Klucel (hydroxypropylcellulose) (HPC)
  T/C: 100 % of control
[12]
  T/C: 100 % of control
[13]
  T/C: 103 % of control

## O=S(=O)(CBr)N1CCOCC1
dose: 50.0 mg/kg/injection, schedule: Q01DX001 (ip), vehicle: saline with Tween-80
  T/C: 95 % of control
dose: 100.0 mg/kg/injection, schedule: Q01DX001 (ip), vehicle: saline with Tween-80
  T/C: 100 % of control
dose: 200.0 mg/kg/injection, schedule: Q01DX001 (ip), vehicle: saline with Tween-80
  T/C: 108 % of control

## BrCCC1(CCBr)CCCCC1
dose: 12.5 mg/kg/injection, schedule: Q01DX009 (ip), vehicle: water
  T/C: 113 % of control
dose: 25.0 mg/kg/injection, schedule: Q01DX009 (ip), vehicle: water
  T/C: 97 % of control
dose: 50.0 mg/kg/injection, schedule: Q01DX009 (ip), vehicle: water
  T/C: 96 % of control
dose: 50.0 mg/kg/injection, schedule: Q04DX003 (ip), vehicle: water
  T/C: 106 % of control
dose: 100.0 mg/kg/injection, schedule: Q01DX009 (ip), vehicle: water
  T/C: 99 % of control
dose: 100.0 mg/kg/injection, schedule: Q04DX003 (ip), vehicle: water
  T/C: 111 % of control
dose: 200.0 mg/kg/injection, schedule: Q01DX009 (ip), vehicle: water
  T/C: 108 % of control
dose: 200.0 mg/kg/injection, schedule: Q04DX003 (ip), vehicle: water
  T/C: 106 % of control
dose: 300.0 mg/kg/injection, schedule: Q04DX003 (ip), vehicle: water
  T/C: 107 % of control
dose: 400.0 mg/kg/injection, schedule: Q01DX009 (ip), vehicle: water
  T/C: 118 % of control
dose: 400.0 mg/kg/injection, schedule: Q04DX003 (ip), vehicle: water
  T/C: 122 % of control
dose: 500.0 mg/kg/injection, schedule: Q04DX003 (ip), vehicle: water
  T/C: 109 % of control
